According to patent US7709636B2, “Pyrazole sulfonylurea compound and herbicide” (Nissan Chemical Industries, Ltd., priority 2004, dated 2010):

Columns and labels:
Scirpus juncoides [1] = assay: Herbicidal effect test in submerged condition by treatment during weed-growth stage (1); assay type: in vivo; conditions: 0.64 g/a, treated at 1st to 2nd leaf stage, 3 weeks after treatment
Summary of the method: (§1)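 Paddy-soil pots flooded to 4 cm water depth were sown and grown in a greenhouse at 25 to 30° C until weeds reached 1st to 2nd leaf stage. A wettable powder diluted in water to a predetermined formulation amount was applied to the water surface. Herbicidal effect was scored 3 weeks after treatment against set criteria.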

Echinochloa crus-galli [2] = assay: as above; assay type: in vivo; conditions: 0.64 g/a, treated at 1st to 2nd leaf stage, 3 weeks after treatment
Summary of the method: as §1

Monochoria vaginalis [3] = assay: as above; assay type: in vivo; conditions: 0.64 g/a, treated at 1st to 2nd leaf stage, 3 weeks after treatment
Summary of the method: as §1

Ambrosia elatior [4] = assay: Herbicidal effect test by soil treatment; assay type: in vivo; conditions: 1.6 g/a, 3 weeks after treatment
Summary of the method: (§2)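 Seeds were sown in sterilized diluvial soil under about 1.5 cm cover, then the soil surface was sprayed uniformly with a water-diluted wettable powder at a predetermined formulation amount. Herbicidal effect was scored per species 3 weeks after treatment.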

Avena fatua [5] = assay: Herbicidal effect test by soil treatment; assay type: in vivo; conditions: 1.6 g/a, 3 weeks after treatment
Summary of the method: as §2

Chenopodium album [6] = assay: Herbicidal effect test by soil treatment; assay type: in vivo; conditions: 1.6 g/a, 3 weeks after treatment
Summary of the method: as §2

corn (Zea mays) [7] = assay: Herbicidal effect test by soil treatment; assay type: in vivo; conditions: 1.6 g/a, 3 weeks after treatment
Summary of the method: as §2

Stellaria media [8] = assay: Herbicidal effect test by soil treatment; assay type: in vivo; conditions: 1.6 g/a, 3 weeks after treatment
Summary of the method: as §2

Polygonum blumei [9] = assay: Herbicidal effect test by soil treatment; assay type: in vivo; conditions: 1.6 g/a, 3 weeks after treatment
Summary of the method: as §2

[10] = tested on: Triticum aestivum (wheat); assay: Herbicidal effect test by soil treatment; assay type: in vivo; conditions: 1.6 g/a, 3 weeks after treatment
Summary of the method: as §2

Echinochloa crus-galli [11] = assay: Herbicidal effect test by soil treatment; assay type: in vivo; conditions: 1.6 g/a, 3 weeks after treatment
Summary of the method: as §2

soybean (Glycine max) [12] = assay: Herbicidal effect test by soil treatment; assay type: in vivo; conditions: 1.6 g/a, 3 weeks after treatment
Summary of the method: as §2

Setaria viridis [13] = assay: Herbicidal effect test by soil treatment; assay type: in vivo; conditions: 1.6 g/a, 3 weeks after treatment
Summary of the method: as §2

Beta vulgaris (beet) [14] = assay: Herbicidal effect test by soil treatment; assay type: in vivo; conditions: 1.6 g/a, 3 weeks after treatment
Summary of the method: as §2

Black-grass [15] = assay: Herbicidal effect test by soil treatment; assay type: in vivo; conditions: 1.6 g/a, 3 weeks after treatment
Summary of the method: as §2

Amaranthus retroflexus [16] = assay: Herbicidal effect test by soil treatment; assay type: in vivo; conditions: 1.6 g/a, 3 weeks after treatment
Summary of the method: as §2

Abutilon avicennae [17] = assay: Herbicidal effect test by soil treatment; assay type: in vivo; conditions: 1.6 g/a, 3 weeks after treatment
Summary of the method: as §2

Digitaria adscendes [18] = assay: Herbicidal effect test by soil treatment; assay type: in vivo; conditions: 1.6 g/a, 3 weeks after treatment
Summary of the method: as §2

direct sown rice [19] = assay: Herbicidal effect test by soil treatment; assay type: in vivo, Oryza sativa; conditions: 1.6 g/a, 3 weeks after treatment
Summary of the method: as §2

Scirpus juncoides [20] = assay: Herbicidal effect test in submerged condition by treatment before weed-generation (1); assay type: in vivo; conditions: 0.64 g/a, water surface treated on day of sowing, 3 weeks after treatment
Summary of the method: (§3)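 Alluvial soil flooded to 4 cm water depth; Echinochloa crus-galli, Scirpus juncoides and Monochoria vaginalis seeds sown, rice transplanted at 2.5-leaf stage. Wettable powder diluted in water applied to water surface on sowing day; greenhouse 25–30° C. Effect scored 0–5 by herbicidal rate after 3 weeks.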

Echinochloa crus-galli [21] = assay: as above; assay type: in vivo; conditions: 0.64 g/a, water surface treated on day of sowing, 3 weeks after treatment
Summary of the method: as §3

Monochoria vaginalis [22] = assay: as above; assay type: in vivo; conditions: 0.64 g/a, water surface treated on day of sowing, 3 weeks after treatment
Summary of the method: as §3

direct sown rice [23] = assay: Herbicidal effect test by foliage treatment; assay type: in vivo, Oryza sativa; conditions: 1.6 g/a; foliage treatment after growth of 14 days; 3 weeks after treatment
Summary of the method: (§4)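 Greenhouse-grown plants (25–30 °C) sprayed on foliage 14 days after sowing with water-diluted wettable powder at set formulation rates. Herbicidal effect scored visually 3 weeks after treatment on a graded scale.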

Ambrosia elatior [24] = assay: Herbicidal effect test by foliage treatment; assay type: in vivo; conditions: 1.6 g/a; foliage treatment after growth of 14 days; 3 weeks after treatment
Summary of the method: as §4

Avena fatua [25] = assay: Herbicidal effect test by foliage treatment; assay type: in vivo; conditions: 1.6 g/a; foliage treatment after growth of 14 days; 3 weeks after treatment
Summary of the method: as §4

Chenopodium album [26] = assay: Herbicidal effect test by foliage treatment; assay type: in vivo; conditions: 1.6 g/a; foliage treatment after growth of 14 days; 3 weeks after treatment
Summary of the method: as §4

corn (Zea mays) [27] = assay: Herbicidal effect test by foliage treatment; assay type: in vivo; conditions: 1.6 g/a; foliage treatment after growth of 14 days; 3 weeks after treatment
Summary of the method: as §4

Stellaria media [28] = assay: Herbicidal effect test by foliage treatment; assay type: in vivo; conditions: 1.6 g/a; foliage treatment after growth of 14 days; 3 weeks after treatment
Summary of the method: as §4

Polygonum blumei [29] = assay: Herbicidal effect test by foliage treatment; assay type: in vivo; conditions: 1.6 g/a; foliage treatment after growth of 14 days; 3 weeks after treatment
Summary of the method: as §4

[30] = tested on: Triticum aestivum (wheat); assay: Herbicidal effect test by foliage treatment; assay type: in vivo; conditions: 1.6 g/a; foliage treatment after growth of 14 days; 3 weeks after treatment
Summary of the method: as §4

Echinochloa crus-galli [31] = assay: Herbicidal effect test by foliage treatment; assay type: in vivo; conditions: 1.6 g/a; foliage treatment after growth of 14 days; 3 weeks after treatment
Summary of the method: as §4

soybean (Glycine max) [32] = assay: Herbicidal effect test by foliage treatment; assay type: in vivo; conditions: 1.6 g/a; foliage treatment after growth of 14 days; 3 weeks after treatment
Summary of the method: as §4

Setaria viridis [33] = assay: Herbicidal effect test by foliage treatment; assay type: in vivo; conditions: 1.6 g/a; foliage treatment after growth of 14 days; 3 weeks after treatment
Summary of the method: as §4

Beta vulgaris (beet) [34] = assay: Herbicidal effect test by foliage treatment; assay type: in vivo; conditions: 1.6 g/a; foliage treatment after growth of 14 days; 3 weeks after treatment
Summary of the method: as §4

Black-grass [35] = assay: Herbicidal effect test by foliage treatment; assay type: in vivo; conditions: 1.6 g/a; foliage treatment after growth of 14 days; 3 weeks after treatment
Summary of the method: as §4

Amaranthus retroflexus [36] = assay: Herbicidal effect test by foliage treatment; assay type: in vivo; conditions: 1.6 g/a; foliage treatment after growth of 14 days; 3 weeks after treatment
Summary of the method: as §4

Abutilon avicennae [37] = assay: Herbicidal effect test by foliage treatment; assay type: in vivo; conditions: 1.6 g/a; foliage treatment after growth of 14 days; 3 weeks after treatment
Summary of the method: as §4

Digitaria adscendes [38] = assay: Herbicidal effect test by foliage treatment; assay type: in vivo; conditions: 1.6 g/a; foliage treatment after growth of 14 days; 3 weeks after treatment
Summary of the method: as §4

SMILES: COc1cc(OC)nc(NC(=O)NS(=O)(=O)c2c(C3=NOCC(C)(CI)O3)c(C)nn2C)n1 (centres unmarked) [Compound 8, N-((4,6-dimethoxypyrimidin-2-yl)aminocarbonyl)-4-(5-iodomethyl-5-methyl-5H,6H-1,4,2-dioxadin-3-yl)-1,3-dimethylpyrazole-5-sulfonamide]
- herbicidal effect, B: Scirpus juncoides (Scirpus juncoides [1]): 4 (Herbicidal rate 70% or more and less than 90%)
- herbicidal effect, A: Echinochloa crus-galli (Echinochloa crus-galli [2]): 4 (Herbicidal rate 70% or more and less than 90%)
- herbicidal effect, C: Monochoria vaginalis (Monochoria vaginalis [3]): 4 (Herbicidal rate 70% or more and less than 90%)
- herbicidal effect, I: Ambrosia elatior (Ambrosia elatior [4]): 5 (Herbicidal rate 90% or more (almost complete death))
- herbicidal effect, F: Avena fatua (Avena fatua [5]): 0 (Herbicidal rate 5% or less (little effect))
- herbicidal effect, K: Chenopodium album (Chenopodium album [6]): 2 (Herbicidal rate 20% or more and less than 40%)
- herbicidal effect, b: corn (Zea mays) (corn (Zea mays) [7]): 0 (Herbicidal rate 5% or less (little effect))
- herbicidal effect, M: Stellaria media (Stellaria media [8]): 4 (Herbicidal rate 70% or more and less than 90%)
- herbicidal effect, L: Polygonum blumei (Polygonum blumei [9]): 5 (Herbicidal rate 90% or more (almost complete death))
- herbicidal effect, e: Triticum aestivum (wheat) [10]: 1 (Herbicidal rate 5% or more and less than 20%)
- herbicidal effect, A: Echinochloa crus-galli (Echinochloa crus-galli [11]): 1 (Herbicidal rate 5% or more and less than 20%)
- herbicidal effect, c: soybean (Glycine max) (soybean (Glycine max) [12]): 0 (Herbicidal rate 5% or less (little effect))
- herbicidal effect, E: Setaria viridis (Setaria viridis [13]): 0 (Herbicidal rate 5% or less (little effect))
- herbicidal effect, f: Beta vulgaris (beet) (Beta vulgaris (beet) [14]): 2 (Herbicidal rate 20% or more and less than 40%)
- herbicidal effect, G: Black-grass (Black-grass [15]): 3 (Herbicidal rate 40% or more and less than 70%)
- herbicidal effect, J: Amaranthus retroflexus (Amaranthus retroflexus [16]): 5 (Herbicidal rate 90% or more (almost complete death))
- herbicidal effect, H: Abutilon avicennae (Abutilon avicennae [17]): 0 (Herbicidal rate 5% or less (little effect))
- herbicidal effect, D: Digitaria adscendes (Digitaria adscendes [18]): 3 (Herbicidal rate 40% or more and less than 70%)
- herbicidal effect, d: direct sown rice (direct sown rice [19]): 2 (Herbicidal rate 20% or more and less than 40%)
- herbicidal effect, B: Scirpus juncoides (Scirpus juncoides [20]): 4 (Herbicidal rate 70% or more and less than 90%)
- herbicidal effect, A: Echinochloa crus-galli (Echinochloa crus-galli [21]): 3 (Herbicidal rate 40% or more and less than 70%)
- herbicidal effect, C: Monochoria vaginalis (Monochoria vaginalis [22]): 5 (Herbicidal rate 90% or more (almost complete death))
- herbicidal effect, d: direct sown rice (direct sown rice [23]): 1 (Herbicidal rate 5% or more and less than 20%)
- herbicidal effect, I: Ambrosia elatior (Ambrosia elatior [24]): 4 (Herbicidal rate 70% or more and less than 90%)
- herbicidal effect, F: Avena fatua (Avena fatua [25]): 1 (Herbicidal rate 5% or more and less than 20%)
- herbicidal effect, K: Chenopodium album (Chenopodium album [26]): 4 (Herbicidal rate 70% or more and less than 90%)
- herbicidal effect, b: corn (Zea mays) (corn (Zea mays) [27]): 4 (Herbicidal rate 70% or more and less than 90%)
- herbicidal effect, M: Stellaria media (Stellaria media [28]): 4 (Herbicidal rate 70% or more and less than 90%)
- herbicidal effect, L: Polygonum blumei (Polygonum blumei [29]): 4 (Herbicidal rate 70% or more and less than 90%)
- herbicidal effect, e: Triticum aestivum (wheat) [30]: 1 (Herbicidal rate 5% or more and less than 20%)
- herbicidal effect, A: Echinochloa crus-galli (Echinochloa crus-galli [31]): 4 (Herbicidal rate 70% or more and less than 90%)
- herbicidal effect, c: soybean (Glycine max) (soybean (Glycine max) [32]): 4 (Herbicidal rate 70% or more and less than 90%)
- herbicidal effect, E: Setaria viridis (Setaria viridis [33]): 4 (Herbicidal rate 70% or more and less than 90%)
- herbicidal effect, f: Beta vulgaris (beet) (Beta vulgaris (beet) [34]): 4 (Herbicidal rate 70% or more and less than 90%)
- herbicidal effect, G: Black-grass (Black-grass [35]): 0 (Herbicidal rate 5% or less (little effect))
- herbicidal effect, J: Amaranthus retroflexus (Amaranthus retroflexus [36]): 4 (Herbicidal rate 70% or more and less than 90%)
- herbicidal effect, H: Abutilon avicennae (Abutilon avicennae [37]): 5 (Herbicidal rate 90% or more (almost complete death))
- herbicidal effect, D: Digitaria adscendes (Digitaria adscendes [38]): 3 (Herbicidal rate 40% or more and less than 70%)
